# Test results: US20230174939A1, “NOVEL ANUCLEATED CELLS AS A SOURCE FOR TREATMENT OF PLATELET RICH PLASMA DEPENDENT DISORDERS” (Stellular Bio, Inc., priority 2020, published 2023)
# Assay: Body weight of rats on treatment in MIA osteoarthritis study
# Format: in vivo, Sprague Dawley rats
# Conditions: oral, positive control; treatment stopped early in the study
# Procedure: Groups of 20 male Sprague Dawley rats were given a 2 mg intra-articular injection of MIA into the right knee on day 0. On day 18, rats were treated with a single dose of plasmalyte buffer (negative control), PLCs, PLC lysate, or human PRP by intra-articular injection into the right knee.
smiles,measurement,value
C[C@@H]1C[C@H]2[C@@H]3CCC4=CC(=O)C=C[C@]4(C)[C@@]3(F)[C@@H](O)C[C@]2(C)[C@@]1(O)C(=O)CO [dexamethasone],body weight on treatment,began to lose weight
